The numbers were not newly measured in US20020012702A1, “Controlled release anti-inflammatory oral formulation and a process for the preparation thereof” (Ajanta Pharma, Ltd., priority 2000, published 2002), which cites them from elsewhere.

`CS(=O)(=O)Nc1ccc([N+](=O)[O-])cc1Oc1ccccc1` [Nimesulide, 4-Nitro-2-phenoxymethane sulfonanilide]: the “nimesulide plasma concentrations in the presence of food versus fasting conditions” value (administered in the presence of food, higher than under fasting conditions) is reported as 2 to 4 fold. For the same molecule, the half life (in vivo) is 3 to 4 h.
